Results reported in patent US8192962B2, “Processes for detecting toxic substances” (Daikin Industries, Ltd., priority 2001, dated 2012).

Tested on: Metabolism protein genes
Experiment: DNA chip mRNA expression in yeast, metabolism protein genes (Table 7)
Assay type: cell-based, Saccharomyces cerevisiae S288C
Experimental: Yeast (Saccharomyces cerevisiae S288C (α SUC2mal mel gap2 CUP1)) were incubated at 25° C. on YPD medium (yeast extract 1%, polypepton 2%, glucose 2%). One of toxic chemical substances was added to the cells at logarithmic growth phase, and the cells were further incubated for two hours. Cells were cultured without any chemical substance in the same condition, and were used as control. Concentrations of the chemical substances were defined to inhibit the growth of the yeast but not lead to death.
After completion of the incubation, the culture was centrifuged to collect the cells. To the cells, sodium acetate buffer (50 mM sodium acetate, 10 mM EDTA, 1% SDS) was added, and the mixture was shaken at 65° C. for five minutes, followed by returning to room temperature, and obtaining the supernatant, of which the procedures were repeated two times. To the supernatant, ½ amount of a solution of phenol/chloroform was added, and the mixture was centrifuged to give a supernatant, which was added with an equal amount of chloroform, and the mixture was centrifuged to give a supernatant. To the supernatant, an equal amount of isopropanol containing 0.3 M sodium acetate was added, and the mixture was allowed to stand at room temperature for 30 minutes, after which the mixture was centrifuged to give a sediment of the whole RNAs. Seventy % ethanol was added to the sediment, and the mixture was again centrifuged to give a sediment, which was then dried and dissolved in water. mRNA was isolated from the whole RNAs as followings. In view of the fact that a poly A chain is attached to the 3′ terminus of mRNA, a polynucleotide having a poly T structure which was immobilized on the surface of latex beads was used to trap the mRNA, and then the mRNA was washed and eluted with spine column (Oligotex-dT30<Super>mRNA Purification Kit, Takara). Reverse transcription of the mRNA was conducted with a reverse transcriptase (Super Script II Reverse Transcriptase; catalogue No. 18064-014, GibcoBRL) using fluorescence-labeled nucleotides to give cDNAs that were introduced with Cy3-dUTP or Cy5-dUTP during the reverse transcription.
The labeled cDNAs were dissolved in TE buffer (10mM Tris-HCl/1 mM EDTA, pH8.0), and the solution was dropped on the DNA chip containing the whole genes of yeast (DNA Chip Research Inc. Japan) so that the cDNAs were hybridized on the DNA chip at 65° C. for over 12 hours. The fluoresces intensity of the DNA chip was read with a scanner, and the ratio relative to the fluorescence intensity resulting from the absence of chemical substance was estimated as the following, which is shown in Tables 1 to 9: […]

O=[N+]([O-])c1cc[n+]([O-])c2ccccc12 [(5), 4-nitroquinolin-N-oxide]
The level of expressed mRNA in the presence of chemical substance/The level of expressed mRNA in the absence of chemical substance (yeast gene YFL056C): 0.9 | The level of expressed mRNA in the presence of chemical substance/The level of expressed mRNA in the absence of chemical substance (yeast gene YFL057C): 0.9 | The level of expressed mRNA in the presence of chemical substance/The level of expressed mRNA in the absence of chemical substance (yeast gene YFR047C): 1.2 | level of expressed mRNA in the presence/in the absence of chemical substance (yeast gene YGL012W): 1.5 | The level of expressed mRNA in the presence of chemical substance/The level of expressed mRNA in the absence of chemical substance (yeast gene YGL022W): 1.0 | level of expressed mRNA in the presence/in the absence of chemical substance (yeast gene YGL115W): 1.2 | The level of expressed mRNA in the presence of chemical substance/The level of expressed mRNA in the absence of chemical substance (yeast gene YGL126W): 1.1 | level of expressed mRNA in the presence/in the absence of chemical substance (yeast gene YGL205W): 1.1 | The level of expressed mRNA in the presence of chemical substance/The level of expressed mRNA in the absence of chemical substance (yeast gene YGL209W): 0.7 | The level of expressed mRNA in the presence of chemical substance/The level of expressed mRNA in the absence of chemical substance (yeast gene YGL248W): 1.3 | The level of expressed mRNA in the presence of chemical substance/The level of expressed mRNA in the absence of chemical substance (yeast gene YGR037C): 1.0 | The level of expressed mRNA in the presence of chemical substance/The level of expressed mRNA in the absence of chemical substance (yeast gene YGR055W): 1.3 | level of expressed mRNA in the presence/in the absence of chemical substance (yeast gene YGR096W): 1.2 | level of expressed mRNA in the presence/in the absence of chemical substance (yeast gene YGR191W): 0.8 | The level of expressed mRNA in the presence of chemical substance/The level of expressed mRNA in the absence of chemical substance (yeast gene YGR194C): 0.8 | level of expressed mRNA in the presence/in the absence of chemical substance (yeast gene YGR204W): 0.6 | The level of expressed mRNA in the presence of chemical substance/The level of expressed mRNA in the absence of chemical substance (yeast gene YGR256W): 0.9 | The level of expressed mRNA in the presence of chemical substance/The level of expressed mRNA in the absence of chemical substance (yeast gene YGR282C): 1.0 | level of expressed mRNA in the presence/in the absence of chemical substance (yeast gene YGR288W): 0.8 | level of expressed mRNA in the presence/in the absence of chemical substance (yeast gene YHR025W): 0.9 | The level of expressed mRNA in the presence of chemical substance/The level of expressed mRNA in the absence of chemical substance (yeast gene YHR111W): 1.5 | The level of expressed mRNA in the presence of chemical substance/The level of expressed mRNA in the absence of chemical substance (yeast gene YHR137W): 1.0 | The level of expressed mRNA in the presence of chemical substance/The level of expressed mRNA in the absence of chemical substance (yeast gene YHR174W): 1.3 | The level of expressed mRNA in the presence of chemical substance/The level of expressed mRNA in the absence of chemical substance (yeast gene YHR176W): 1.0 | level of expressed mRNA in the presence/in the absence of chemical substance (yeast gene YHR210C): 1.8 | level of expressed mRNA in the presence/in the absence of chemical substance (yeast gene YIL006W): 0.8 | The level of expressed mRNA in the presence of chemical substance/The level of expressed mRNA in the absence of chemical substance (yeast gene YIL045W): 1.3 | The level of expressed mRNA in the presence of chemical substance/The level of expressed mRNA in the absence of chemical substance (yeast gene YIL107C): 0.8 | The level of expressed mRNA in the presence of chemical substance/The level of expressed mRNA in the absence of chemical substance (yeast gene YIL154C): 0.9 | The level of expressed mRNA in the presence of chemical substance/The level of expressed mRNA in the absence of chemical substance (yeast gene YIL155C): 1.3 | The level of expressed mRNA in the presence of chemical substance/The level of expressed mRNA in the absence of chemical substance (yeast gene YIL167W): 1.0 | The level of expressed mRNA in the presence of chemical substance/The level of expressed mRNA in the absence of chemical substance (yeast gene YIR031C): 1.6 | The level of expressed mRNA in the presence of chemical substance/The level of expressed mRNA in the absence of chemical substance (yeast gene YIR034C): 1.1 | The level of expressed mRNA in the presence of chemical substance/The level of expressed mRNA in the absence of chemical substance (yeast gene YIR036C): 0.9 | The level of expressed mRNA in the presence of chemical substance/The level of expressed mRNA in the absence of chemical substance (yeast gene YJL031C): 1.7 | The level of expressed mRNA in the presence of chemical substance/The level of expressed mRNA in the absence of chemical substance (yeast gene YJL068C): 0.7 | The level of expressed mRNA in the presence of chemical substance/The level of expressed mRNA in the absence of chemical substance (yeast gene YJL088W): 0.9 | The level of expressed mRNA in the presence of chemical substance/The level of expressed mRNA in the absence of chemical substance (yeast gene YJL099W): 1.9 | level of expressed mRNA in the presence/in the absence of chemical substance (yeast gene YJL121C): 1.0 | level of expressed mRNA in the presence/in the absence of chemical substance (yeast gene YJL167W): 0.7 | The level of expressed mRNA in the presence of chemical substance/The level of expressed mRNA in the absence of chemical substance (yeast gene YJL172W): 0.9 | level of expressed mRNA in the presence/in the absence of chemical substance (yeast gene YJL216C): 0.8 | The level of expressed mRNA in the presence of chemical substance/The level of expressed mRNA in the absence of chemical substance (yeast gene YJL219W): 1.2 | level of expressed mRNA in the presence/in the absence of chemical substance (yeast gene YJR077C): 0.9 | The level of expressed mRNA in the presence of chemical substance/The level of expressed mRNA in the absence of chemical substance (yeast gene YJR137C): 0.6 | level of expressed mRNA in the presence/in the absence of chemical substance (yeast gene YJR143C): 1.6
